This passage reports AC50 results from patent publication US9108921B2, “Therapeutic compounds and compositions” (AGIOS PHARMACEUTICALS, INC, priority 2014, dated 2015).

What all share (assay type): biochemical
In one experiment the target is PKR R510Q (Homo sapiens, UniProt P30613, R510Q). The experiment can be described thus: PKR Mutant Assay, AC50 against PKR R510Q. Conditions: mutant PKR R510Q enzyme. The method, then: (§1) • PKR or PKR mutant enzyme solution was diluted in assay buffer. • 2 μL of test compound was added into wells first, and then 180 μL reaction mix was added. • Reactions mixture with test compound was assembled except for ADP, and plates were stored for 60 minutes at room temperature. • 20 uL ADP was added to start reaction at room temperature and reaction progress was measured as changes in absorbance at 340 nm wavelength at room temperature.
(§2) Test Compound Preparation: • Test compound stock was made at 100× concentration in 100% DMSO (10 mM) • 1 to 3 dilutions were made for 11 points (i.e. 50 μl of first concentration added to 100 μl 100% DMSO to yield 3.33 mM, 50 μl of this added to 100 μl DMSO to yield 1.11 mM, and so forth) • 1 to 100 dilution into assay (2 μl in 200 μl) yielded starting concentration of 100 μM, decreasing 3 fold for 11 points. Assay Buffer: 100 mM KCl, 50 mM Tris 7.5, 5 mM MgCl2, 1 mM DTT, 0.03% BSA Reaction Mixture: PKR mutant enzyme: 80-400 ng/well; ADP: 0.22-1.65 mM; PEP: 0.1-0.5 mM; NADH: 180 uM; LDH: 0.5 units (Sigma#59023); DTT: 1 mM; BSA: 0.03%.

A further experiment deals with PKR R532W (Homo sapiens, UniProt P30613, R532W). The experiment can be described thus: PKR Mutant Assay, AC50 against PKR R532W. To be noted: mutant PKR R532W enzyme. The method, then: as §1, §2
The target in a further experiment is PKR WT (Homo sapiens, UniProt P30613). The experiment can be described thus: PKR WT enzymatic AC50 assay. To be noted: wild type PKR. The method, then: as §1, §2
PKR WT, sequence (P30613 whole entry): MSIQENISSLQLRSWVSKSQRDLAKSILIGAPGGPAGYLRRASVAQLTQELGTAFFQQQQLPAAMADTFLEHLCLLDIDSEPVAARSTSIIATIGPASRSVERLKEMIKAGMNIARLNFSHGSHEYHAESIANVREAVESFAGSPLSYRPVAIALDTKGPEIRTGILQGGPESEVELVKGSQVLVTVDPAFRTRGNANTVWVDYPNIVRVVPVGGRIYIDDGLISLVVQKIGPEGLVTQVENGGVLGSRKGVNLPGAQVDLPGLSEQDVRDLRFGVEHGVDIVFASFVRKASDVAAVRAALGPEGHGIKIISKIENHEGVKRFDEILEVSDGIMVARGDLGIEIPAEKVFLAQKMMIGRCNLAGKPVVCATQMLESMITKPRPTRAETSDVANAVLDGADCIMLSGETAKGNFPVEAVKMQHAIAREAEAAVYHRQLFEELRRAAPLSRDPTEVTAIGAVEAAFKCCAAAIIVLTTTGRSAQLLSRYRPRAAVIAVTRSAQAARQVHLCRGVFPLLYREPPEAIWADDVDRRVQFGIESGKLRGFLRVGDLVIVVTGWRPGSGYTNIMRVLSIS

PKR R510Q, sequence (P30613 whole entry R510Q): as the sequence (P30613 whole entry) above, with R510Q counted along it
PKR R532W, sequence (P30613 whole entry R532W): as the sequence (P30613 whole entry) above, with R532W counted along it

What is called AC50 is the midpoint of the concentration-response curve, whichever way the signal moves. Read a low AC50 as greater potency. For `CCC1(O)CCN(C(=O)c2ccc(NS(=O)(=O)c3cccc4cccnc34)cc2)CC1` [Compound 267], the AC50 fell in the range of 1010 to 10000 nM at PKR R510Q, 101 to 1000 nM on PKR R532W and 101 to 1000 nM at PKR WT.
In the case of `CN1C(=O)C=C2C=C(S(=O)(=O)Nc3ccc(C(=O)N4CCC(O)(Cc5ccccc5)CC4)cc3)C=CC21` (stereo not drawn) [Compound 268], the AC50 on PKR R510Q was in the range of 1010 to 10000 nM; at PKR R532W, 101 to 1000 nM; at PKR WT it was 101 to 1000 nM.
`CC(C)CC1(O)CCN(C(=O)c2ccc(NS(=O)(=O)c3csc4cccnc34)cc2)CC1` [Compound 269]: the AC50 on PKR R510Q lay in the range of 1010 to 10000 nM; at PKR R532W, 101 to 1000 nM; at PKR WT, 101 to 1000 nM.
As for `O=C(c1ccc(NS(=O)(=O)c2cccc3cccnc23)c(OC(F)(F)F)c1)N1CCC(O)(c2ccccc2Cl)CC1` [Compound 270], the values for the AC50 on PKR R510Q, at PKR R532W and at PKR WT were 1010 to 10000 nM, 101 to 1000 nM and 101 to 1000 nM, respectively.
As to `O=C(c1ccc(NS(=O)(=O)c2cccc3scnc23)cc1)N1CCC(O)(c2ccccc2-c2ccccc2Cl)CC1` [Compound 271], the AC50 at PKR R510Q is 1010 to 10000 nM; at PKR R532W, 101 to 1000 nM; on PKR WT it was 101 to 1000 nM.
On to `O=C(c1ccc(NS(=O)(=O)c2cccc3cccnc23)cc1)N1CCC(O)(Cc2cccnn2)CC1` [Compound 272], for which the AC50 on PKR R510Q was in the range of 1010 to 10000 nM; at PKR R532W it was 101 to 1000 nM; on PKR WT, 101 to 1000 nM.
As to `N#Cc1cc(C(=O)N2CCC(O)(c3ccccc3Cl)CC2)ccc1NS(=O)(=O)c1cccc2cccnc12` [Compound 273], the figures for the AC50 on PKR R510Q, on PKR R532W and on PKR WT were 1010 to 10000 nM, 101 to 1000 nM and 101 to 1000 nM, respectively.
Turning to `O=C(c1ccc(NS(=O)(=O)c2cccc3cccnc23)cc1)N1CCC(O)(CCO)CC1` [Compound 274], the AC50 at PKR R510Q lay within 1010 to 10000 nM; at PKR R532W, 101 to 1000 nM; on PKR WT it was 101 to 1000 nM.
Consider `CC(O)CC1(O)CCN(C(=O)c2ccc(NS(=O)(=O)c3cccc4cccnc34)cc2)CC1` (stereo not drawn) [Compound 275], for which the results for the AC50 at PKR R510Q, at PKR R532W and on PKR WT were 1010 to 10000 nM, 101 to 1000 nM and 101 to 1000 nM, respectively.
With `COc1cccc(C2(O)CCN(C(=O)c3ccc(NS(=O)(=O)c4cccc5cccnc45)cc3)CC2)c1` [Compound 276], the values for the AC50 on PKR R510Q, on PKR R532W and at PKR WT were 1010 to 10000 nM, 101 to 1000 nM and 101 to 1000 nM, respectively.
On to `O=C(c1ccc(NS(=O)(=O)c2ccc(F)c3cccnc23)c(F)c1)N1CCC(O)(c2cccc(F)c2F)CC1` [Compound 277], for which the results for the AC50 at PKR R510Q, at PKR R532W and on PKR WT were 1010 to 10000 nM, 101 to 1000 nM and 101 to 1000 nM, respectively.
For `N#Cc1cccc(C2(O)CCN(C(=O)c3ccc(NS(=O)(=O)c4cccc5cccnc45)cc3)CC2)c1` [Compound 278], the AC50 on PKR R510Q lay in the range of 1010 to 10000 nM; on PKR R532W it was 101 to 1000 nM; at PKR WT, 101 to 1000 nM.
For the compound `O=C(c1ccc(NS(=O)(=O)c2csc3cccnc23)cc1)N1CCC(O)(c2ccccc2Cl)CC1` [Compound 280], the figures for the AC50 at PKR R510Q, on PKR R532W and at PKR WT were 1010 to 10000 nM, 101 to 1000 nM and 101 to 1000 nM, respectively.
Take `O=C(c1ccc(NS(=O)(=O)c2cccc3cnccc23)cc1)N1CCC(O)(Cc2ccccc2)CC1` [Compound 283]: the AC50 at PKR R510Q was 1010 to 10000 nM; on PKR R532W, 101 to 1000 nM; on PKR WT, 101 to 1000 nM.
Turning to `O=C(c1ccc(NS(=O)(=O)c2cccc3cccnc23)cc1)N1CCC(O)(c2cccc3c2OCCO3)CC1` [Compound 284], the AC50 lay within 1010 to 10000 nM at PKR R510Q, 101 to 1000 nM on PKR R532W and 101 to 1000 nM on PKR WT.
Take `COc1cccnc1C1(O)CCN(C(=O)c2ccc(NS(=O)(=O)c3cccc4cccnc34)cc2)CC1` [Compound 285]: the results for the AC50 at PKR R510Q, at PKR R532W and at PKR WT were > 10000 nM, 101 to 1000 nM and 101 to 1000 nM, respectively.
On to `O=C(c1ccc(NS(=O)(=O)c2cccc3cccnc23)cc1)N1CCC(O)(c2cccc(F)n2)CC1` [Compound 286], for which the results for the AC50 at PKR R510Q, at PKR R532W and on PKR WT were 1010 to 10000 nM, 101 to 1000 nM and 101 to 1000 nM, respectively.
